Results published in ChEMBL document CHEMBL4304815, “Photoswitchable Inhibitor of the Calcium Channel TRPV6” (ACS Med Chem Lett, 2019).
The source made the active and inactive calls. The rule behind the calls is not given here.

Tests used:
[1] = Thermal isomerization of the compound in DMSO assessed as E isomer level at 500 uM preincubated for 48 hrs under dark condition followed by irradiated with UV light at 365 nm for 5 mins and subsequent irradiation with UV light at 470 nm for 5 mins measured immediately by UV-Vis spectroscopy
[2] = Drug isomerization in DMSO assessed as Z isomer level at 500 uM incubated for 48 hrs in dark by RP-UHPLC analysis
[3] = Solubility of the compound in DMSO/buffer at >10 uM; format: physicochemical
[4] = biological target: T1, Transient receptor potential cation channel subfamily V member 6 (Homo sapiens) (UniProt Q9H1D0); test: Inhibition of human TRPV6 expressed in HEK293 cells assessed as reduction of Cd2+ influx at 10 uM preincubated for 5 mins followed by CdCl2 addition measured under dark state by calcium-5 fluorescence dye-based FLIPR assay relative to control; format: cell-based
T1 sequence (whole entry): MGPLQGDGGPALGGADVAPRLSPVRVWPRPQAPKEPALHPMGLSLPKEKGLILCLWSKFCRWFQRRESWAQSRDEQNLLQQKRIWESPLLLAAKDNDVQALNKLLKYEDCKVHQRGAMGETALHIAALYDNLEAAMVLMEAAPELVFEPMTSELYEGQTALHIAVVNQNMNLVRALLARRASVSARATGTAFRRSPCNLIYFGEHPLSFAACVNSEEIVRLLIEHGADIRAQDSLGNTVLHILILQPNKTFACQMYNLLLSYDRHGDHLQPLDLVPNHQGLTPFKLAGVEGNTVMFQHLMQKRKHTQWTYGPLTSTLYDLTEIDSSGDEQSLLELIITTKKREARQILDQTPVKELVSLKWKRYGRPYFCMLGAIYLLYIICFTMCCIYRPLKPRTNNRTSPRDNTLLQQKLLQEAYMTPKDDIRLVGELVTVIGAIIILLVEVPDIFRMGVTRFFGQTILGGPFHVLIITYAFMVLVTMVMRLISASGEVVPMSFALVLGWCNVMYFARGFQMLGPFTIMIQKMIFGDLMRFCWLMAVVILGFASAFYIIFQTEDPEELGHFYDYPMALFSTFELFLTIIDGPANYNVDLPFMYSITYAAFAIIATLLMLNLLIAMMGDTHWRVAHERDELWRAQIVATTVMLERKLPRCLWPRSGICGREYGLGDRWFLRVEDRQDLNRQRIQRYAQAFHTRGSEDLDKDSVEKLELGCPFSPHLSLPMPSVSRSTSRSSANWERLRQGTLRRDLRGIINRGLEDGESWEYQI

[5] = Drug isomerization in DMSO assessed as Z isomer level at 500 uM irradiated with UV light at 365 nm for 5 mins measured immediately by RP-UHPLC analysis
[6] = Stability in DMSO assessed as parent compound remaining at 500 uM irradiated with UV light at 365 nm for 5 mins measured immediately by RP-UHPLC analysis
[7] = Drug isomerization in DMSO assessed as Z isomer level by measuring maximum absorbance at 500 uM irradiated with UV light at 365 nm for 5 mins measured immediately by UV-vis spectra analysis
[8] = biological target: T2, Transient receptor potential cation channel subfamily V member 6 (Homo sapiens, UniProt Q9H1D0); test: Inhibition of human TRPV6 expressed in HEK293 cells assessed as reduction of Cd2+ influx preincubated for 5 mins followed by CdCl2 addition measured under dark state by calcium-5 fluorescence dye-based FLIPR assay; format: cell-based
T2 sequence (Q9H1D0 whole entry): T1 sequence (whole entry)

[9] = Stability in DMSO assessed as parent compound remaining at 500 uM incubated for 48 hrs in dark by RP-UHPLC analysis; format: physicochemical; settings: read-out: Stability
[10] = biological target: T1, Transient receptor potential cation channel subfamily V member 6 (Homo sapiens); test: Inhibition of human peTFP-C1-TRPV6 expressed in HEK293 cells assessed as decrease in whole cell inward calcium current density at 10 uM at 50 mV holding potential by patch clamp assay; format: cell-based
[11] = biological target: T1, Transient receptor potential cation channel subfamily V member 6 (Homo sapiens); test: Inhibition of human YFP-fused TRPV6 expressed in HEK293 cells assessed as decrease in whole cell inward calcium current density at 10 uM at 50 mV holding potential pre-irradiated with 365 nm UV-light followed by […] irradiation by patch clamp assay; format: cell-based
[12] = biological target: T1, Transient receptor potential cation channel subfamily V member 6 (Homo sapiens); test: Inhibition of human YFP-fused TRPV6 expressed in HEK293 cells assessed as decrease in whole cell inward calcium current density at 10 uM at 50 mV holding potential under 365 nm UV-light irradiation by patch clamp assay; format: cell-based
[13] = biological target: T1, Transient receptor potential cation channel subfamily V member 6 (Homo sapiens); test: Inhibition of human TRPV6 expressed in HEK293 cells assessed as reduction in Cd2+ influx at 10 uM preincubated for 5 mins followed by CdCl2 addition using 365 nm UV-light irradiated compound by calcium-5 fluorescence dye-based FLIPR assay; format: cell-based
[14] = Half life of the compound in DMSO assessed as thermal isomerization by measuring E isomer level at 500 uM incubated for 48 hrs under dark condition by UV-Vis spectroscopy; format: physicochemical
[15] = biological target: T2, Transient receptor potential cation channel subfamily V member 6; test: Inhibition of human TRPV6 expressed in HEK293 cells assessed as reduction in Cd2+ influx preincubated for 5 mins followed by CdCl2 addition using 365 nm UV-light irradiated compound by calcium-5 fluorescence dye-based FLIPR assay; format: cell-based
[16] = Drug isomerization in DMSO assessed as Z isomer level at 500 uM irradiated with UV light at 365 nm for 5 mins measured immediately by UV-vis spectra analysis

| Structure (SMILES) | Drug metabolism [1] | Z isomer level [2] [%] | solubility [3] | inhibition [4] [%] | Z isomer level [5] [%] | Stability [6] [%] | remaining at 48 h, 500 µM [9] [%] | inhibition [13] | half-life at 500 µM [14] [h] | Drug metabolism [16] | further results |
| --- | --- | --- | --- | --- | --- | --- | --- | --- | --- | --- | --- |
| c1ccc([C@H]2CC[C@@H](N3CCN(c4ccc(/N=N\c5cccnc5)cc4)CC3)CC2)cc1 | Metabolite detected |  |  |  |  |  |  |  |  |  |  |
| c1ccc(/N=N\c2ccc(N3CCN([C@H]4CC[C@@H](c5ccccc5)CC4)CC3)cc2)cc1 | Metabolite detected |  |  |  |  |  |  |  |  |  |  |
| c1ccc(/N=N/c2ccc(CN3CCN([C@H]4CC[C@@H](c5ccccc5)CC4)CC3)cn2)cc1 |  | 0 | Insoluble | 70 | 50 | 50 | 100 |  |  |  | Activity [7]: 400 to 500 nm; IC50 [8]: 600 nM |
| c1ccc(/N=N/c2ccc(CN3CCN([C@H]4CC[C@@H](c5ccccc5)CC4)CC3)cc2)cc1 |  | 3 | Insoluble | 13 | 75 | 25 | 97 |  |  |  | inhibition [10]: Active; Activity [7]: 400 to 500 nm; IC50 [8]: > 10000 nM |
| c1ccc(/N=N\c2ccc(CN3CCN([C@H]4CC[C@@H](c5ccccc5)CC4)CC3)cc2)cc1 | Metabolite detected |  |  |  |  |  |  | Active | 93.6 |  | inhibition [11]: Active; inhibition [12]: Active; IC50 [15]: 1700 nM |
| c1ccc(/N=N\c2ccc(N3CCN([C@H]4CC[C@@H](c5ccccc5)CC4)CC3)cn2)cc1 |  |  |  |  |  |  |  | Active | 0.137 |  |  |
| c1ccc([C@H]2CC[C@@H](N3CCN(c4ccc(/N=N/c5cccnc5)cc4)CC3)CC2)cc1 |  | 0 | Insoluble |  | 0 | 100 | 100 |  |  | Metabolite not detected |  |
| c1ccc(/N=N/c2ccc(N3CCN([C@H]4CC[C@@H](c5ccccc5)CC4)CC3)cn2)cc1 |  | 0 | Insoluble | 30 | 12 | 88 | 100 |  |  | Metabolite not detected |  |
| c1ccc(/N=N/c2ccc(N3CCN([C@H]4CC[C@@H](c5ccccc5)CC4)CC3)cc2)cc1 |  | 7 | Insoluble |  | 7 | 93 | 93 |  |  | Metabolite not detected |  |
| c1ccc(/N=N\c2ccc(CN3CCN([C@H]4CC[C@@H](c5ccccc5)CC4)CC3)cn2)cc1 |  |  |  |  |  |  |  | Active | 3.7 |  | IC50 [15]: 600 nM |
